{"source": "patent US10154974B1", "about": "“Use of abscisic acid for the prevention and treatment of malaria” (The Regents of the University of California, priority 2015, dated 2018)", "key": {"[1]": {"experiment": "Daily monitoring of water consumption, body weight and condition of mice", "type": "in vivo", "details": "infected CD1 mice", "protocol": "6-8 week old female CD1 mice (Jackson) were housed four to a cage and provided with unsupplemented water or water supplemented with 2.56 mM (±)-abscisic acid (CAS Registry Number 14375-45-2) obtained from Sigma-Aldrich (Catalog No. A1049). Water and supplemented water were changed daily. On day 3 of supplementation, mice were injected intraperitoneally with 5×10^6 P. yoelii 17XNL-infected RBCs. Mouse weight, water consumption per cage, and parasitemia were monitored daily. Parasitemia was determined from thin blood films stained with Giemsa. Parasitemia was measured as the percentage of infected RBCs divided by total RBCs, while gametocytemia was measured as the proportion of gametocyte-containing RBCs of total infected RBCs. Four mice were used per group in replicated studies. Daily parasitemias and gametocytemias were analyzed by unpaired t-test."}, "P. yoelii 17XNL": {"system": "P. yoelii 17XNL", "experiment": "P. yoelii transmission from ABA-supplemented mice to A. stephensi (oocyst counts)", "type": "in vivo", "protocol": "Anopheles stephensi Liston (Indian wild-type strain) were reared and maintained at 27° C. and 75% humidity. For all feeding experiments, 3-5-day-old female mosquitoes were maintained on water pads for 24 hours and then allowed to bloodfeed for 30 minutes on control or ABA-supplemented P. yoelii 17XNL-infected mice. Cohorts of 50 mosquitoes were allowed to feed on each mouse at 5 days post-infection. Immediately after feeding non-engorged mosquitoes were removed. Ten days post-feeding, midguts were dissected, stained with 0.5% mercurochrome, and oocysts counted by microscopy."}, "P. falciparum NF54": {"system": "P. falciparum NF54", "experiment": "P. falciparum asexual growth assay", "type": "cell-based", "details": "10 nM or 100 nM ABA, 48 and 96 hours, relative to untreated control", "protocol": "P. falciparum NF54 cultures were synchronized and aliquots plated in complete RPMI 1640 with HEPES, hypoxanthine, and 10% heat inactivated human serum. Parasites were treated with 10 nM ABA, 100 nM ABA, or a diluent control and incubated at 37° C. for 48 or 96 hours before culture media was replaced with 10% formalin in RPMI 1640. Red blood cells were stained with 10 ug/mL propidium iodide (Sigma-Aldrich) in PBS at room temperature for 1 hour and infected cells counted with FACS Calibur flow cytometer (BD Biosciences). Four replicates were carried out, each using a separate parasite culture passage. Relative changes in growth were normalized to controls set at 1 and analyzed by one-sample t-test."}, "P. falciparum": {"system": "P. falciparum", "experiment": "P. falciparum infection of A. stephensi fed a supplemented infected bloodmeal", "type": "in vivo", "details": "for reduction of infection prevalence in A. stephensi: relative to control", "protocol": "For P. falciparum infections A. stephensi were fed on a 1:1 ratio of P. falciparum-infected RBCs containing a treatment or diluent control and provided in a Hemotek Insect Feeding System (Discovery Workshops). ABA was eluted in 100% ethanol and stored at −20 C for up to 6 months. ABA stock was diluted with PBS and added into blood immediately before feeding for final concentrations of 10 nM and 100 nM. For L-NAME feeds mosquitoes were maintained on sugar cubes and water pads containing 1 mg/mL L-NAME for 72 hours before the feed and throughout the course of infection. Infection prevalence data were analyzed by Fisher's Exact Test. Oocyst intensities were analyzed by Mann-Whitney test."}, "defensin": {"system": "defensin", "experiment": "Defensin mRNA levels in mosquito midgut", "type": "in vivo, Anopheles stephensi", "details": "100 nM ABA, 4 hours post-feeding", "protocol": "For mosquito immune gene expression, 20 midguts were dissected from mosquitoes in each treatment group at 1, 2, 4, 6, 8 and 24 hours post-feeding. Midguts were sonicated and stored in Trizol at −20° C. for up to a week before RNA was extracted according to manufacturer's instructions. cDNA synthesis was carried out using QantiTect Reverse Transcription Kit (Qiagen) and 200 ng of cDNA used per reaction for qRT-PCR with Sybr Green (Applied Biosystems). Fold changes in expression levels were calculated using the comparative threshold cycle method. Data were normalized to the housekeeping gene ribosomal protein S7 and to the control treatment. Primers and cycling conditions for AsNOS, defensin, LRIM, TEP1, and APL1 were as previously described (Hauck E S, et al. Microbes Infect. 2013; 15:775-87). […] Samples were analyzed in triplicate with 250 ng of cDNA per reaction to confirm uniformity of amplification. […] All expression data were analyzed by one sample t-test.\nTranscript levels of a panel of immune genes previously described to play a role in the mosquito immune response to malaria parasites were examined. […] Mosquitoes were provided with a P. falciparum-infected bloodmeal supplemented with 100 nM ABA or with an equivalent volume of diluent as control, then analyzed at 1-24 hours post feeding."}, "AMPK": {"system": "AMPK", "experiment": "AMPK phosphorylation in mosquito midgut", "type": "in vivo, Anopheles stephensi", "details": "midguts of ABA-treated, P. falciparum-fed mosquitoes", "protocol": "(§1) Fold change is shown in levels of phosphorylated AMPK (FIG. 13A), and gsk3 (FIG. 13B) in the midguts of ABA-treated, P. falciparum-fed mosquitoes compared to controls. Each dot represents one replicate of 15 pooled midguts. Data were analyzed by one sample t-test. * p<0.05."}, "gsk3": {"system": "gsk3", "experiment": "gsk3 phosphorylation in mosquito midgut", "type": "in vivo, Anopheles stephensi", "details": "midguts of ABA-treated, P. falciparum-fed mosquitoes", "protocol": "as §1"}, "[2]": {"system": "prospero, escargot, ATG6, ATG8", "experiment": "Expression of midgut epithelial cell turnover genes", "type": "in vivo, Anopheles stephensi", "details": "P. falciparum-fed mosquito midguts", "protocol": "Data are shown as fold changed compared to control-treated mosquitoes. Each dot represents one replicate of 10 pooled midguts. Data were analyzed by one sample t-test. * p<0.05. nd indicates the prospero was not detectable at 72 or 96 hours."}, "IgG1 and IgG2a": {"system": "IgG1 and IgG2a", "experiment": "IgM and IgG antibody isotype concentrations in mouse plasma", "type": "in vivo, mice", "details": "days 9, 11 and 13 post-infection", "protocol": "FIG. 24 illustrates that ABA supplementation increases levels of IgG1 and IgG2a in plasma. Concentrations are shown of IgM and IgG antibody isotypes in mouse plasma with and without ABA supplementation on days 9, 11 and 13 post-infection with P. yoelii 17XNL. Data were analyzed by unpaired t-test."}, "human macrophages": {"system": "human macrophages", "details": "in vitro; cited from earlier work"}, "influenza": {"system": "influenza", "details": "ABA treatment; cited from earlier work"}}}
{"smiles": "CC1=CC(=O)CC(C)(C)[C@@]1(O)/C=C/C(C)=C\\C(=O)O", "note": "(racemic) [ABA, (2Z,4E)-5-[(1S)-1-hydroxy-2,6,6-trimethyl-4-oxocyclohex-2-en-1-yl]-3-methylpenta-2,4-dienoic acid]", "values": [{"measurement": "lethargy at necropsy", "setting": "[1]; day 7, compared to controls", "result": "less lethargic"}, {"measurement": "daily weight change", "setting": "[1]; over the course of infection", "result": "not different"}, {"measurement": "mean oocysts per midgut", "setting": "P. yoelii 17XNL; A. stephensi fed on ABA-supplemented mice on day 5", "result": 12}, {"measurement": "infection prevalence of mosquitoes", "setting": "P. yoelii 17XNL; A. stephensi fed on ABA-supplemented mice on day 5, dissected ten days later", "result": 60.9, "unit": "%"}, {"measurement": "reduction in prevalence", "setting": "P. yoelii 17XNL; vs mosquitoes fed on control mice", "result": 31.4, "unit": "%"}, {"measurement": "asexual growth", "setting": "P. falciparum NF54", "result": "no effect"}, {"measurement": "reduction of infection prevalence in A. stephensi", "setting": "P. falciparum; 10 nM ABA in bloodmeal", "result": 30, "unit": "%"}, {"measurement": "mean oocysts per midgut", "setting": "P. falciparum; 10 nM ABA, among infected mosquitoes (controls 2.1)", "result": 1.6}, {"measurement": "reduction of infection prevalence in A. stephensi", "setting": "P. falciparum; 100 nM ABA in bloodmeal", "result": 36, "unit": "%"}, {"measurement": "defensin mRNA levels", "setting": "defensin", "result": "increase"}, {"measurement": "phosphorylation of AMPK", "setting": "AMPK", "result": "alters phosphorylation"}, {"measurement": "phosphorylation of gsk3", "setting": "gsk3", "result": "alters phosphorylation"}, {"measurement": "expression of genes involved in midgut epithelial cell turnover", "setting": "[2]", "result": "reduces expression"}, {"measurement": "levels of IgG1 in plasma", "setting": "IgG1 and IgG2a", "result": "increases"}, {"measurement": "levels of IgG2a in plasma", "setting": "IgG1 and IgG2a", "result": "increases"}, {"measurement": "activation of human macrophages", "setting": "human macrophages", "result": "activate"}, {"measurement": "vascular infiltrates", "setting": "influenza", "result": "decreased"}, {"measurement": "viral load", "setting": "influenza", "result": "no effect"}]}
